# Laboratory results as given in patent publication US6235284A, “Synthetic polypeptides belonging to the hepatitis C virus (HCV) and which can be used especially for detecting the latter” (Bio Merieux, priority 1992, dated 2001).
# Tests used:
# [1] = tested on: anti-HCV antibodies (HCV-positive sera); test: ELISA detection of anti-HCV antibodies in HCV-positive sera with adsorbed peptides; type: binding, human
# Experimental: The reactivity of these three peptides towards the sera of individuals infected with the hepatitis C virus, termed (HCV) positive, was evaluated in an ELISA test according to the procedure described below.
# Detection of anti-HCV Antibodies by ELISA
# The wells of a microtiter plate of "NUNC MAXISORB™" trademark are saturated with 100 μl of a solution containing the peptide or a mixture of peptides (10 μg/ml) for 2 hours at 37° C. The plate is then emptied, then washed with a wash buffer containing 0.05% TWEEN™ 20(polysorbate 20). The wells are saturated with 100 μl of wash buffer supplemented with 10% goat serum (v/v), then incubated for 30 minutes at 37° C., then washed again as above. The sera to be analyzed are diluted to the appropriate dilution with saturation buffer. The incubation of the sera is 1 hour at 37° C. The wells are again washed. The solution of conjugate (goat IgG to human IgG labelled with peroxidase) at a dilution of 1/1000 in the saturation buffer is then added and the incubation lasts for 90 minutes at 37° C. After washing, the solution of orthophenylenediamine substrate is added. After 10 minutes, the reaction is stopped with 50 μl of H2 SO4 and the optical density is read at 492 nm. It should be noted that all the tests were carried out in duplicate.
# For that, the different peptides are adsorbed on the microplates at a concentration of 10 μg/ml and the sera are used at 1/100 dilution.
# The values obtained, which are collated in Table 1 below, correspond to the optical density (OD) multiplied by 10^3, at 492 nm.
# For each serum the experiment was carried out in duplicate. The **** are values outside the upper scale.
# The different peptides are absorbed onto microplates at a concentration of 10 μg/ml and the sera are used at the dilution stated.
# The values obtained, which are collated in Table 2 below, correspond to the optical density at 492 nm. All the experiments were carried out in duplicate.
# Each serum was, in a first instance, tested at the dilution 1/100.
# The values given correspond to the optical density read at 492 nm multiplied by the factor 10^3.
# [2] = tested on: anti-HCV antibodies binding onto peptide S42G; test: Inhibition test: inhibition of binding of anti-HCV antibodies onto peptide S42G by preincubation with peptides; design: species or system human; conditions: inhibitor 0.1 mg/ml
# Experimental: To evaluate this hypothesis, inhibition tests, whose usefulness lies in the fact that they allow the formation of the antigen-antibody complex in liquid medium, were carried out, thus dispensing with possible artifacts linked to the adsorption of peptides onto a solid support.
# The inhibition experiments were carried out by reaction, in liquid phase, of the HCV sera with the peptides followed by reaction of the remaining antibodies with the peptide adsorbed onto the microplates. The inhibitory peptides are incubated at a concentration of 0.1 mg/ml with sera of appropriate dilution. The rest of the manipulation is identical to that described for the ELISA test.
# Peptide S18D (SEQ ID NO:11), or V22G (SEQ ID NO:12), or a mixture of both, is preincubated overnight in the presence of the serum to be tested. The antibodies can bind onto the corresponding sites.
substance,measurement,setting,value
S18D: a peptide of 20 amino acids covering sequence 2 to 21 of the CORE protein (STNPKPQRKTKRNTNRRPQD),optical density at 492 nm,"[1]; Table 2, line 68, serum not named (below CTS), 1/100",2.500 OD
same,optical density at 492 nm,"[1]; Table 2, line 69, serum not named (below CTS), 1/1000",2.500 OD
same,optical density at 492 nm,"[1]; Table 2, line 70, serum not named (below CTS), 1/10000",0.347 OD
same,optical density at 492 nm,"[1]; Table 2, line 75, serum B4, 1/1000",1.250 OD
same,optical density at 492 nm,"[1]; Table 2, line 76, serum B4, 1/1000 (so in the source)",0.171 OD
same,optical density at 492 nm,"[1]; Table 2, serum B1, 1/100",1.859 OD
same,optical density at 492 nm,"[1]; Table 2, serum B2, 1/100",1.781 OD
same,optical density at 492 nm,"[1]; Table 2, serum B3, 1/100",1.244 OD
same,optical density at 492 nm,"[1]; Table 2, serum B4, 1/100",2.500 OD
same,optical density at 492 nm,"[1]; Table 2, serum B5, 1/100",2.032 OD
same,optical density at 492 nm,"[1]; Table 2, serum B6, 1/100",2.500 OD
same,optical density at 492 nm,"[1]; Table 2, serum B7, 1/100",2.500 OD
same,optical density at 492 nm,"[1]; Table 2, serum B8, 1/100",1.362 OD
same,optical density at 492 nm,"[1]; Table 2, serum B9, 1/100",0.808 OD
same,optical density at 492 nm,"[1]; Table 2, serum B10, 1/100",0.099 OD
same,optical density at 492 nm,"[1]; Table 2, serum B11, 1/100",2.324 OD
same,optical density at 492 nm,"[1]; Table 2, serum B12, 1/100",1.375 OD
same,optical density at 492 nm,"[1]; Table 2, serum B13, 1/100",0.370 OD
same,optical density at 492 nm,"[1]; Table 2, serum B14, 1/100",0.072 OD
same,optical density at 492 nm,"[1]; Table 2, serum B15, 1/100",0.090 OD
same,optical density at 492 nm,"[1]; Table 2, serum B16, 1/100",2.500 OD
same,optical density at 492 nm,"[1]; Table 2, serum CTS, 1/100",2.500 OD
same,optical density at 492 nm,"[1]; Table 2, serum CTS, 1/1000",2.500 OD
same,optical density at 492 nm,"[1]; Table 2, serum CTS, 1/10000",0.295 OD
same,optical density at 492 nm,"[1]; Table 2, serum P1, 1/100",0.012 OD
same,optical density at 492 nm,"[1]; Table 2, serum P2, 1/100",0.020 OD
same,optical density at 492 nm,"[1]; Table 2, serum P3, 1/100",0.162 OD
same,optical density at 492 nm,"[1]; Table 2, serum P4, 1/100",0.982 OD
same,optical density at 492 nm,"[1]; Table 2, serum P5, 1/100",2.500 OD
same,optical density at 492 nm,"[1]; Table 2, serum P5, 1/1000",2.317 OD
same,optical density at 492 nm,"[1]; Table 2, serum P5, 1/10000",0.399 OD
same,optical density at 492 nm,"[1]; Table 2, serum P6, 1/100",0.007 OD
same,optical density at 492 nm,"[1]; Table 2, serum P7, 1/100",2.500 OD
same,optical density at 492 nm,"[1]; Table 2, serum P7, 1/1000",0.854 OD
same,optical density at 492 nm,"[1]; Table 2, serum P7, 1/10000",0.165 OD
same,optical density at 492 nm,"[1]; Table 2, serum P8, 1/100",2.500 OD
same,optical density at 492 nm,"[1]; Table 2, serum P8, 1/1000",2.500 OD
same,optical density at 492 nm,"[1]; Table 2, serum P8, 1/10000",0.681 OD
same,optical density at 492 nm,"[1]; Table 2, serum P9, 1/100",0.019 OD
same,optical density at 492 nm,"[1]; Table 2, serum P10, 1/100",0.028 OD
same,optical density at 492 nm,"[1]; Table 2, serum P11, 1/100",0.383 OD
same,optical density at 492 nm,"[1]; Table 2, serum P12, 1/100",2.500 OD
same,optical density at 492 nm,"[1]; Table 2, serum P12, 1/1000",2.500 OD
same,optical density at 492 nm,"[1]; Table 2, serum P12, 1/10000",0.454 OD
same,optical density at 492 nm,"[1]; Table 2, serum P13, 1/100",0.012 OD
same,optical density at 492 nm,"[1]; Table 2, serum P14, 1/100",0.907 OD
same,optical density at 492 nm,"[1]; Table 2, serum P15, 1/100",2.500 OD
same,optical density at 492 nm,"[1]; Table 2, serum P16, 1/100",0.225 OD
same,optical density at 492 nm,"[1]; Table 2, serum P17, 1/100",0.297 OD
same,optical density at 492 nm,"[1]; Table 2, serum P18, 1/100",2.500 OD
same,optical density at 492 nm,"[1]; Table 2, serum P18, 1/1000",0.297 OD
same,optical density at 492 nm,"[1]; Table 2, serum P18, 1/10000",0.095 OD
same,optical density at 492 nm,"[1]; Table 2, serum P19, 1/100",0.011 OD
same,optical density at 492 nm,"[1]; Table 2, serum P20, 1/100",1.433 OD
same,optical density at 492 nm,"[1]; Table 2, serum P21, 1/100",0.111 OD
same,optical density at 492 nm,"[1]; Table 2, serum P22, 1/100",2.500 OD
same,optical density at 492 nm,"[1]; Table 2, serum P22, 1/1000",1.142 OD
same,optical density at 492 nm,"[1]; Table 2, serum P22, 1/10000",0.146 OD
same,optical density at 492 nm,"[1]; Table 2, serum P23, 1/100",0.015 OD
same,optical density at 492 nm,"[1]; Table 2, serum P24, 1/100",0.015 OD
same,optical density at 492 nm,"[1]; Table 2, serum P25, 1/100",2.500 OD
same,optical density at 492 nm,"[1]; Table 2, serum P25, 1/1000",2.199 OD
same,optical density at 492 nm,"[1]; Table 2, serum P25, 1/10000",0.329 OD
same,optical density at 492 nm,"[1]; Table 2, serum P26, 1/100",2.500 OD
same,optical density at 492 nm,"[1]; Table 2, serum P26, 1/1000",2.500 OD
same,optical density at 492 nm,"[1]; Table 2, serum P26, 1/10000",0.957 OD
same,optical density at 492 nm,"[1]; Table 2, serum P27, 1/100",1.425 OD
same,optical density at 492 nm,"[1]; Table 2, serum P28, 1/100",0.115 OD
same,optical density at 492 nm,"[1]; Table 2, serum P29, 1/100",0.000 OD
same,optical density at 492 nm,"[1]; Table 2, serum P30, 1/100",0.483 OD
same,optical density at 492 nm,"[1]; Table 2, serum P31, 1/100",2.500 OD
same,optical density at 492 nm,"[1]; Table 2, serum P31, 1/1000",1.975 OD
same,optical density at 492 nm,"[1]; Table 2, serum P31, 1/10000",0.183 OD
same,optical density at 492 nm,"[1]; Table 2, serum P32, 1/100",1.046 OD
same,optical density at 492 nm,"[1]; Table 2, serum P33, 1/100",1.307 OD
same,optical density at 492 nm,"[1]; Table 2, serum P34, 1/100",2.500 OD
same,optical density at 492 nm,"[1]; Table 2, serum P35, 1/100",2.500 OD
same,optical density at 492 nm,"[1]; Table 2, serum P36, 1/100",0.115 OD
same,optical density at 492 nm,"[1]; Table 2, serum P37, 1/100",2.500 OD
same,optical density at 492 nm,"[1]; Table 2, serum P37, 1/1000",0.523 OD
same,optical density at 492 nm,"[1]; Table 2, serum P37, 1/10000",0.102 OD
same,optical density at 492 nm,"[1]; Table 2, serum P38, 1/100",2.500 OD
same,optical density at 492 nm,"[1]; Table 2, serum P38, 1/1000",0.753 OD
same,optical density at 492 nm,"[1]; Table 2, serum P38, 1/10000",0.099 OD
same,optical density at 492 nm,"[1]; Table 2, serum P39, 1/100",2.500 OD
same,optical density at 492 nm,"[1]; Table 2, serum P40, 1/100",2.500 OD
same,optical density at 492 nm,"[1]; Table 2, serum P41, 1/100",1.579 OD
same,optical density at 492 nm,"[1]; Table 2, serum P42, 1/100",0.000 OD
same,reactivity towards HCV-positive sera,[1]; in words,react
same,inhibition,"[2]; serum B4, 1/10,000",16.8%
same,inhibition,"[2]; serum P5, 1/10,000",3.5%
same,inhibition,"[2]; serum P7, 1/10,000",8.4%
same,inhibition,"[2]; serum P8, 1/10,000",1.4%
same,inhibition,"[2]; serum P18, 1/10,000",10.6%
same,inhibition,"[2]; serum P22, 1/10,000",6.6%
same,inhibition,"[2]; serum P25, 1/10,000",14.1%
same,inhibition,"[2]; serum P31, 1/10,000",2.0%
same,inhibition,"[2]; serum P37, 1/10,000",43.6%
same,inhibition,"[2]; serum P38, 1/10,000",8.9%
